Data as given in the supplement of paper PMC10307832.

Legend:
Assay in all cases: relative viability (nuclei count vs DMSO), 5 days (fraction); higher = more cells survive
Neratinib + Bortezomib = compound: CCOc1cc2ncc(C#N)c(Nc3ccc(OCc4ccccn4)c(Cl)c3)c2cc1NC(=O)/C=C/CN(C)C [Neratinib] + CC(C)C[C@H](NC(=O)[C@H](Cc1ccccc1)NC(=O)c1cnccn1)B(O)O [Bortezomib] (partner 0.002 µM)
Outline: (§1)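 Medians of duplicate plates are given as relative viability. That measure is the nuclei count in treated wells divided by the count in vehicle wells. Counts were taken on 4× images of lung cancer cell lines in 1536-well plates, 5 days after pin-tool dosing the day after seeding with one drug alone or a fixed anchor-drug dose plus five library-drug doses (not always all listed) in √10 steps.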

Neratinib + Luminespib = compound: CCOc1cc2ncc(C#N)c(Nc3ccc(OCc4ccccn4)c(Cl)c3)c2cc1NC(=O)/C=C/CN(C)C [Neratinib] + CCNC(=O)c1noc(-c2cc(C(C)C)c(O)cc2O)c1-c1ccc(CN2CCOCC2)cc1 [Luminespib] (partner 0.01 µM)
Outline: as §1

Neratinib + Palbociclib = compound: CCOc1cc2ncc(C#N)c(Nc3ccc(OCc4ccccn4)c(Cl)c3)c2cc1NC(=O)/C=C/CN(C)C [Neratinib] + CC(=O)c1c(C)c2cnc(Nc3ccc(N4CCNCC4)cn3)nc2n(C2CCCC2)c1=O [Palbociclib] (partner 0.5 µM)
Outline: as §1

Neratinib + Dasatinib = compound: CCOc1cc2ncc(C#N)c(Nc3ccc(OCc4ccccn4)c(Cl)c3)c2cc1NC(=O)/C=C/CN(C)C [Neratinib] + Cc1nc(Nc2ncc(C(=O)Nc3c(C)cccc3Cl)s2)cc(N2CCN(CCO)CC2)n1 [Dasatinib] (partner 0.075 µM)
Outline: as §1

| Cell Line | relative viability (Neratinib + Bortezomib; first compound 0.01 µM) | relative viability (Neratinib + Bortezomib; first compound 0.03162 µM) | relative viability (Neratinib + Bortezomib; first compound 0.1 µM) | relative viability (Neratinib + Bortezomib; first compound 0.3162 µM) | relative viability (Neratinib + Bortezomib; first compound 1 µM) | relative viability (Neratinib + Luminespib; first compound 0.01 µM) | relative viability (Neratinib + Luminespib; first compound 0.03162 µM) | relative viability (Neratinib + Luminespib; first compound 0.1 µM) | relative viability (Neratinib + Luminespib; first compound 0.3162 µM) | relative viability (Neratinib + Luminespib; first compound 1 µM) | relative viability (Neratinib + Palbociclib; first compound 0.01 µM) | relative viability (Neratinib + Palbociclib; first compound 0.03162 µM) | relative viability (Neratinib + Palbociclib; first compound 0.1 µM) | relative viability (Neratinib + Palbociclib; first compound 0.3162 µM) | relative viability (Neratinib + Palbociclib; first compound 1 µM) | relative viability (Neratinib + Dasatinib; first compound 0.01 µM) | relative viability (Neratinib + Dasatinib; first compound 0.03162 µM) | relative viability (Neratinib + Dasatinib; first compound 0.1 µM) | relative viability (Neratinib + Dasatinib; first compound 0.3162 µM) | relative viability (Neratinib + Dasatinib; first compound 1 µM) |
| --- | --- | --- | --- | --- | --- | --- | --- | --- | --- | --- | --- | --- | --- | --- | --- | --- | --- | --- | --- | --- |
| COR-L 105 | 0.856 | 0.883 | 0.429 | 0.347 | 0.346 | 0.862 | 0.669 | 0.53 | 0.35 | 0.203 | 0.397 | 0.451 | 0.385 | 0.351 | 0.341 | 0.288 | 0.353 | 0.236 | 0.146 | 0.164 |
| LK-2 | – | – | – | – | – | 0.183 | 0.21 | 0.197 | 0.18 | 0.125 | 0.868 | 0.752 | – | 0.476 | 0.522 | 0.28 | 0.275 | 0.354 | 0.258 | 0.218 |
| PC-3 [JPC-3] | 0.834 | 0.844 | 0.82 | 0.802 | 0.365 | 0.702 | 0.733 | 0.648 | 0.496 | 0.326 | 0.513 | 0.559 | 0.492 | 0.544 | 0.471 | 1.11 | 1.1 | 0.885 | 0.757 | 0.286 |
| UMC-11 | 0.623 | 0.964 | 0.823 | 0.615 | 0.729 | 1.15 | 1.1 | 0.964 | 0.903 | 0.763 | 0.321 | 0.327 | 0.319 | 0.335 | 0.243 | 0.482 | 0.505 | 0.399 | 0.384 | 0.425 |
| NCI-H2085 | 1.05 | – | 0.869 | 1.06 | 0.76 | 0.4 | 0.455 | 0.353 | 0.3 | 0.294 | 0.468 | 0.456 | 0.467 | 0.419 | 0.382 | 0.261 | 0.264 | 0.254 | 0.21 | 0.234 |
| NCI-H441 | 0.661 | 0.381 | 0.372 | 0.54 | 0.265 | 0.415 | 0.413 | 0.423 | 0.304 | 0.16 | 0.244 | 0.192 | 0.177 | 0.163 | 0.161 | 0.696 | 0.488 | 0.611 | 0.305 | 0.175 |
| NCI-H1666 | 0.894 | 0.896 | 0.767 | 0.609 | 0.662 | – | 0.951 | – | 0.752 | 0.846 | 0.597 | 0.711 | 0.579 | 0.625 | 0.774 | 0.842 | 0.887 | 0.701 | 0.581 | 0.586 |
| SW 900 | – | – | – | – | – | 0.184 | 0.157 | 0.148 | 0.194 | 0.169 | – | 0.56 | 0.537 | 0.372 | 0.288 | 0.544 | 0.732 | 0.392 | 0.458 | 0.454 |
| NCI-H2126 | 1.2 | 1.13 | 1.05 | 1.07 | 0.821 | 0.932 | 0.853 | 0.828 | 0.822 | 0.464 | 0.33 | 0.347 | – | 0.344 | 0.309 | 0.589 | 0.602 | 0.523 | 0.426 | 0.338 |
| LU99A | 1.11 | 1.18 | 0.762 | 0.927 | 0.413 | 0.268 | 0.19 | 0.231 | 0.333 | 0.22 | 0.377 | 0.434 | 0.356 | 0.385 | 0.329 | 0.636 | 0.352 | 0.551 | 0.51 | 0.278 |
| HCC-366 | 1.16 | 1.13 | – | 1.01 | 1.07 | – | – | – | – | – | 0.418 | 0.464 | 0.353 | 0.431 | 0.211 | 0.688 | 0.716 | 0.615 | 0.588 | 0.689 |
| EKVX | 1.02 | 1.18 | 0.894 | 0.271 | 0.184 | 0.821 | 0.884 | 0.708 | 0.496 | 0.246 | 0.384 | 0.448 | 0.243 | 0.132 | 0.152 | 0.632 | 0.676 | 0.443 | 0.243 | 0.253 |
| NCI-H1755 | 1.08 | 0.934 | – | 1.04 | 0.958 | 0.544 | 0.488 | 0.444 | 0.419 | 0.488 | 0.457 | 0.463 | 0.33 | 0.456 | 0.432 | 0.478 | 0.466 | 0.379 | 0.436 | 0.319 |
| NCI-H727 | 0.961 | 0.914 | – | 0.893 | 0.536 | 0.382 | 0.337 | 0.328 | 0.312 | 0.352 | 0.616 | 0.69 | – | 0.639 | 0.538 | 0.36 | 0.359 | 0.335 | 0.333 | 0.225 |
| LC-2-ad | 1 | 1.07 | 0.866 | 1 | 0.963 | 1.11 | 1.1 | 1.04 | 0.87 | 0.465 | 0.487 | 0.507 | 0.41 | 0.442 | 0.499 | 0.569 | 0.697 | 0.545 | 0.304 | 0.342 |
| NCI-H1793 | – | – | – | – | – | 0.153 | 0.182 | 0.153 | 0.164 | 0.157 | 0.257 | 0.276 | 0.239 | 0.241 | 0.23 | 0.43 | 0.457 | 0.321 | 0.34 | 0.264 |
| HCC-827 | 1.05 | 1.07 | 0.876 | 1.13 | 0.376 | 1.08 | 1.03 | 0.703 | 0.176 | 0.18 | 0.503 | 0.509 | 0.513 | 0.194 | 0.15 | 0.421 | 0.39 | 0.366 | 0.248 | 0.169 |
| HCC-78 | 0.478 | 0.446 | 0.432 | 0.43 | 0.301 | – | – | – | – | – | 0.467 | 0.479 | 0.409 | 0.424 | 0.463 | 0.5 | 0.363 | 0.342 | 0.292 | 0.276 |
